# Results taken from patent publication US20250381207A1, “FLAVONOID-CONTAINING COMPOSITIONS AND TREATMENT OF VIRAL DISEASES WITH SAME” (priority 2024, published 2025).
# How the values were obtained:
# ACE2 = ACE2 (Homo sapiens, UniProt Q9BYF1); assay: In vitro fluorescence ligand binding assay (relative ACE2 inhibition); conditions: for remaining activity at 100 µM: read-out: % of control/blank fluorescence; for IC50: fluorescence binding assay, relative ACE2 inhibition
# Description: A fluorescence ligand bind assay (Lora Benoit, Vinayak Shenoy, Simon Meykler, Ali Mohseni. SARS-COV-2 spike protein 13-mer subdomain corresponds to the drug-binding domain of glutamyl-propyl-tRNA synthetase 1 and is targetable by halofuginone, 22 Jul. 2021, PREPRINT (Version 1) available at Research Square [world wide web at doi.org/10.21203/rs.3.rs-738132/v1]) used to test the binding of various flavonoids. Fluorescence values increased over time (likely due to evaporation at 37° C.), but differences in fluorescence intensity after a kinetic read may be used to calculate relative ACE2 inhibition.
# SARS-COV-2 spike protein = molecular target: T1, SARS-COV-2 spike protein (Severe acute respiratory syndrome coronavirus 2, UniProt P0DTC2); assay: Surface plasmon resonance (SPR) analysis; format: binding; conditions: for Activity (actual) / Activity (calculated) / Rmax (actual) / Rmax (calculated): SPR, analyte 0.4-100 μM, SCK; for Rmax (actual) / Rmax (calculated): 25° C.
# T1 construct: Target/ligand: SARS-COV2 RBD; 4815 RU captured; purchased R&D Systems, Inc., Minneapolis, MN AVI10500
# [1] = SPR FIG. 15A, 50 μM, SARS-COV2 RBD on SA chip
# ACE2, sequence (Q9BYF1 18-805): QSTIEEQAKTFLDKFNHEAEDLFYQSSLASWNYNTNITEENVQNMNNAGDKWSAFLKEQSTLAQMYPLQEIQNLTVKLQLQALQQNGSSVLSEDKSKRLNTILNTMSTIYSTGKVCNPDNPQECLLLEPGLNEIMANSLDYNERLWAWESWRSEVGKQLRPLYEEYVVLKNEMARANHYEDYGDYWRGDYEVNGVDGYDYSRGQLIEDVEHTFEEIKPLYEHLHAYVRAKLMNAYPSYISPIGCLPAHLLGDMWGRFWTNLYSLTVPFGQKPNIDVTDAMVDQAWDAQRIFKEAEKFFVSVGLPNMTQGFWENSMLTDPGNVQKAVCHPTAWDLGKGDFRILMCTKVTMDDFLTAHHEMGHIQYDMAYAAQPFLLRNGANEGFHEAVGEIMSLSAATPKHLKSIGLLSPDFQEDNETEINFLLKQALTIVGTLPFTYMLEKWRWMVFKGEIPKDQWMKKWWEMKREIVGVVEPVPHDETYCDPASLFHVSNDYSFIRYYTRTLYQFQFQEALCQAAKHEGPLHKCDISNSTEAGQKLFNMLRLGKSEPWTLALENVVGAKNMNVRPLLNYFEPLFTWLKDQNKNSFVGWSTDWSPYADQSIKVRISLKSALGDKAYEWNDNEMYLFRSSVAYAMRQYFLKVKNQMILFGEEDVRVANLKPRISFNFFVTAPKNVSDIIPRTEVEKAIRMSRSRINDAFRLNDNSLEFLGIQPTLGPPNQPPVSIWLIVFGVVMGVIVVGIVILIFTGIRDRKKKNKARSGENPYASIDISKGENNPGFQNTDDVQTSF
Compound,remaining activity at 100 µM (ACE2) [%],IC50 (ACE2) [µM],Activity (actual) (SARS-COV-2 spike protein; SARS-COV2 RBD on SA chip) [%],Activity (calculated) (SARS-COV-2 spike protein; SARS-COV2 RBD on SA chip) [%],Rmax (actual) (SARS-COV-2 spike protein; SARS-COV2 RBD on SA chip) [RU],Rmax (calculated) (SARS-COV-2 spike protein; SARS-COV2 RBD on SA chip) [RU],further results
"O=C1C[C@@H](c2ccc(O)cc2)Oc2cc(O)cc(O)c21 [Naringenin, naringenin]",57,36.2,–,–,–,–,–
"COc1ccc(C[C@H](N)C(=O)N[C@H]2[C@@H](O)[C@H](n3cnc4c(N(C)C)ncnc43)O[C@@H]2CO)cc1 [Puromycin, puromycin, reference compound]",–,–,–,–,–,–,Percent viable cells (%) normalized to vehicle control and puromycin (Calu-3 cell line; human): 0.00%
"C[C@@H]1O[C@@H](OC[C@H]2O[C@@H](Oc3c(-c4ccc(O)c(O)c4)oc4cc(O)cc(O)c4c3=O)[C@H](O)[C@@H](O)[C@@H]2O)[C@H](O)[C@H](O)[C@H]1O [Rutin, rutin]",44,39.4,21,17,21.0,16.7,–
COc1ccc(C2CC(=O)c3c(O)cc(O)cc3O2)cc1O (stereo not drawn) [hesperetin],–,–,–,–,–,–,"Calu-3 viability after compound + SARS-COV-2 spike protein treatment, in words (Calu-3 cell line): decrease of viability in a hesperetin concentration-dependent manner"
COc1ccc(-c2cc(=O)c3c(OC)c(OC)c(OC)c(OC)c3o2)cc1OC [nobiletin],60,26.5,–,–,–,–,–
hesperidin,–,–,72,40,72.7,40.4,"Activity (50 μM) (SARS-COV-2 spike protein; [1]): 98%; Rmax (50 μM) (SARS-COV-2 spike protein; [1]): 94.3 RU; SPR binding activity, in words (SARS-COV-2 spike protein; initial experiment, MCK mode from 10 μM): displayed binding activity with slow dissociation; activity (inhibitory effect on binding to SARS-COV-2 spike protein and ACE2) (SARS-COV-2 spike protein; summary statement of Example 1): 82%; viability normalized to SARS-COV-2 spike protein treatment alone and vehicle (Calu-3 cell line): over 80%"
